Experimental data from patent US20260256812A1, “COMPOSITION COMPRISING A COMBINATION OF A CORTICOSTEROID AND A FLAVONOID FOR USE IN TREATING EYE-RELATED DISEASES” (priority 2023, published 2026).

Experiments:
ARPE-19 cells [1] = experiment: Cytotoxicity evaluation by acid phosphatase assay (APA); format: cell-based, human
Procedure: ARPE-19 (adult retinal pigment epithelium-19) cell line was cultured using cell culture media containing a 1:1 mixture of DMEM and F-12 nutrient mixture. The media was supplemented with 10% FBS and 1% penicillin-streptomycin antibiotic mixture. During the culture, cells were maintained at 37° C. with 5% CO2 in a humidified incubator and sub-cultured with trypsin upon confluency.
Cytotoxicity evaluation of the drugs, both individually and in combination, was performed using the acid phosphatase assay (APA). The cytotoxicity assay was performed on TA and QCN from 5 to 250 μM and 1 to 250 μM, respectively. After investigating individual drugs, drug combinations were tested as outlined in Table 1.
Initially ARPE-19 cells were seeded onto a 96-well plate at a seeding density of 5000 cells/well containing 100 μL of cell culture media and cultured for 24 hr. After 24 hr, treatments were added to the wells and incubated for the period of the study (24 h and 48 hr). After the treatment period, media was removed, and cells were washed twice with PBS. Upon washing, 100 μL of 10 mM PNPP substrate dissolved in 0.1 M sodium acetate buffer was added to the wells and incubated for 2 hr. Finally, 50 μL of stop solution (1 M sodium hydroxide) was added and the plate was analysed in the plate reader at 405 nm.

[2] = test system: intracellular ROS in ARPE-19 cells; experiment: DCFH-DA intracellular ROS assay by flow cytometry; format: cell-based, human
Procedure: ARPE-19 cells were seeded onto 6-well plates at a seeding density of 25×10^4 cells/well and incubated for 24 hr. At the 24 hr time point cells were stimulated with stimulants to induce oxidative stress. […] Upon incubation with dye, cells were detached using trypsin and resuspended in PBS for analysis using flow cytometry.
Upon stimulation and treatment, the intracellular ROS levels were measured using flow cytometry to assess the anti-oxidant effect of the treatments. The oxidation of DCFH-DA to 2′-7′dichlorofluorescein (DCF) was used for the detection of intracellular ROS levels including nitrogen dioxide and hydroxyl radicals. The cells will take up the DCFH-DA dye where cellular esterase cleaves off the acetyl groups, resulting in the formation of DCFH (2′,7′-dichlorodihydrofluorescein). Oxidation of DCFH in the presence of intracellular ROS leads to the formation of DCF. This DCF fluorescent molecule can be detected using a flow cytometer by mean fluorescence intensity (MFI).

IL-6 = IL-6 ELISA on ARPE-19 cell supernatants; format: cell-based, human
Procedure: The human IL-6, IL-8, MCP-1, and VEGF-C ELISA kits were used according to the manufacturer's protocol to investigate the cytokine secretions in the cell supernatants. Cells were seeded onto a 24-well plate at a seeding density of 3×10^4 cells/well with 500 μL of cell culture media and cultured for 24 hr. Cells were kept overnight in low serum media (with 1% FBS) to synchronise their growth phase before stimulating inflammation. […] Upon stimulation, cells were exposed to various treatments of drugs alone and in combination for 24 hr. After the treatment duration media conditioned by treated cells were collected and analysed for the cytokines and VEGF-C secretions using the ELISA kits. ELISA was performed according to the manufacturer's protocol.

VEGF-C = experiment: Anti-VEGF activity, VEGF-C ELISA on LPS-stimulated ARPE-19 cells; format: cell-based, human
Procedure: The human IL-6, IL-8, MCP-1, and VEGF-C ELISA kits were used according to the manufacturer's protocol to investigate the cytokine secretions in the cell supernatants. Cells were seeded onto a 24-well plate at a seeding density of 3×10^4 cells/well with 500 μL of cell culture media and cultured for 24 hr. Cells were kept overnight in low serum media (with 1% FBS) to synchronise their growth phase before stimulating inflammation. After 24 hr cells were stimulated with 10 μg/mL LPS to induce inflammation for a duration of 24 hr. Upon stimulation, cells were exposed to various treatments of drugs alone and in combination for 24 hr. After the treatment duration media conditioned by treated cells were collected and analysed for the cytokines and VEGF-C secretions using the ELISA kits. ELISA was performed according to the manufacturer's protocol.

DPPH antioxidant assay = experiment: DPPH antioxidant assay
Procedure: The DPPH assay was performed in a 96-well plate where 20 μL of methanolic DPPH solution was added to 180 μL of methanolic solutions of treatments. Based on the outcome from anti-inflammatory studies, the higher concentrations of TA and QCN, both individually and in combination were investigated for antioxidant activity (TA 75, 100 μM and QCN 15, 20 μM). This reaction mixture was incubated for 30 min in darkness at room temperature and the absorbance was measured at 517 nm using a microplate reader.

ARPE-19 cells [3] = experiment: Scratch (wound healing, cell migration) assay; format: cell-based, human; details: QCN 20 μM; TA 100 μM; TA 100+QCN 20 μM; 1% FBS
Procedure: For the scratch or wound healing assay cells were seeded onto six-well plates with a seeding density of 25×10^4 cells/well. Upon reaching 80-90% confluency, a sterile 200 μL pipette tip was used to scrape the confluent monolayer of cells in a horizontal line. After creating the scratch, cell debris was washed with PBS and the cell culture media containing treatments was added to each well. The scratch was photographed using an Olympus EP50 microscope at 10× magnification at 0, 6, 9, 24, 27 and 30 h. “Image J” software was used to analyse the width of the scratch.
The major cause of irreversible vision loss is the exudative form of AMD, which is characterized by CNV where the newly formed blood vessels protrude from the choroid to the retina through Bruch's membrane. Even though the mechanism of CNV is not fully understood, some pathological studies point to the connection between CNV and sub-RPE deposits. Additionally, focal inflammation leads to focal thinning and damage of Bruch's membrane in patients of AMD. RPE cells are essential for the maintenance of photoreceptor cells as they provide nutrients. But the contact between RPE and photoreceptor cells was disrupted due to the accumulation of sub-RPE deposits and the interference of branched blood vessels. […] Upon seeding 25×10^4 cells/well and reaching around 90% confluency, the wounds were created and measured using image ‘J’ software. […]

[4] = 10 μg/mL LPS 24 hr, then 24 hr treatment
[5] = TA 10 to 250 μM, 24 hr and 48 hr

OO [H2O2, hydrogen peroxide]
cell viability with stimulant (ARPE-19 cells [1]; H2O2 200 and 300 μM, up to 48 h): decrease in cell viability | MFI of stimulated stained cells ([2]; HP at 300 μM, unstimulated stained printed as 3.73±0.29, P value <0.05): 2.01±0.10

O=c1c(O)c(-c2ccc(O)c(O)c2)oc2cc(O)cc(O)c12 [QCN, quercetin]
cell viability (ARPE-19 cells [1]; QCN 1 to 20 μM): more than 90% | effect on cells at higher concentrations (ARPE-19 cells [1]; QCN above 25 μM, up to 250 μM): toxic effects | cell viability (ARPE-19 cells [1]; QCN concentration up to 25 μM, 24 hr and 48 hr): more than 80% | IL-6 expression compared to LPS stimulated cells (IL-6; [4]): decreased | concentration showing maximum inhibition of IL-6 expression (IL-6; [4]): 20 µM | VEGF-C concentration (VEGF-C; QCN 20 μM, control LPS stimulated 1.96±2.05): 0.83 ± 0.02 µg/mL | expression of VEGF-C compared to LPS stimulated cells (VEGF-C; TA 75, 100 μM, QCN 15, 20 μM, individually and in combination): better suppression | inhibition of DPPH (DPPH antioxidant assay; QCN 20 μM): 66.71±0.61% | anti-oxidant effect on DPPH free radical (DPPH antioxidant assay; TA 75, 100 μM, QCN 15, 20 μM, 30 min): strong anti-oxidant effect | generated ROS (MFI) compared to control stimulated stained cells ([2]; 300 μM H2O2, TA 75, 100 μM, QCN 15, 20 μM, individually and in combination, 24 hr): significantly suppressed | migration of the cells (ARPE-19 cells [3]): enhanced the migration

lipopolysaccharide [LPS]
cytotoxicity of stimulant (ARPE-19 cells [1]; LPS 0.5 to 100 μg/mL, up to 48 h): non-toxic | IL-6 cytokine on stimulation (IL-6; LPS stimulation from 10 to 50 μg/mL): consistently increased

CC1(C)O[C@@H]2C[C@H]3[C@@H]4CCC5=CC(=O)C=C[C@]5(C)[C@@]4(F)[C@@H](O)C[C@]3(C)[C@]2(C(=O)CO)O1 [TA, triamcinolone acetonide]
cell morphology (ARPE-19 cells [1]; [5]): no changes in cell morphology | viability of cells (ARPE-19 cells [1]; [5]): not affected | concentration showing maximum inhibition of IL-6 expression (IL-6; [4]): 100 µM
